Earlier results, collected in patent US8350059B2, “Intermediates and methods for making zearalenone macrolide analogs” (Eisai R&D Management Co., Ltd., priority 2007, dated 2013).

System: Map/Erk kinase (MEK)
Conditions: background statement

## COc1cc(O)c2c(c1)/C=C/C[C@H](O)[C@H](O)C(=O)/C=C\C[C@H](C)OC2=O [F152]
  inhibition of the phosphorylating enzyme Map/Erk kinase (MEK): inhibit the phosphorylating enzyme Map/Erk kinase (MEK)
